ED50, Selectivity ratio and EC50 data for 2 compounds are collected here from ChEMBL document CHEMBL3813619, “Feeling Nature's PAINS: Natural Products, Natural Product Drugs, and Pan Assay Interference Compounds (PAINS)” (J Nat Prod, 2016).

One assay relates to Rattus norvegicus. Kind of assay: Antiinflammatory activity in po dosed rat assessed as inhibition of reverse passive arthus reaction. Format: functional.
Assay [1] is described as follows: Selectivity ratio of mouse Kv1.3 to ratio of KCa3.1 (unknown origin).
Assay [2] concerns the target Potassium voltage-gated channel subfamily A member 3 (Mus musculus, UniProt P16390). Kind of assay: Inhibition of mouse Kv1.3 expressed in L929 cells at -80 mV holding potential by whole cell patch-clamp method. Format: cell-based. For orientation: In patch-clamp work, channel activity is measured electrically.

By ED50 is commonly meant the dose at which the effect has come halfway, by size or by number of responders. The term pEC50 denotes the negative decadic logarithm of the EC50, by convention in mol/L. Lower therefore signals a high EC50.

SMILES strings stand for the structures. pEC50: −log10 of the molar value.

Sequence of Potassium voltage-gated channel subfamily A member 3 (P16390 whole entry): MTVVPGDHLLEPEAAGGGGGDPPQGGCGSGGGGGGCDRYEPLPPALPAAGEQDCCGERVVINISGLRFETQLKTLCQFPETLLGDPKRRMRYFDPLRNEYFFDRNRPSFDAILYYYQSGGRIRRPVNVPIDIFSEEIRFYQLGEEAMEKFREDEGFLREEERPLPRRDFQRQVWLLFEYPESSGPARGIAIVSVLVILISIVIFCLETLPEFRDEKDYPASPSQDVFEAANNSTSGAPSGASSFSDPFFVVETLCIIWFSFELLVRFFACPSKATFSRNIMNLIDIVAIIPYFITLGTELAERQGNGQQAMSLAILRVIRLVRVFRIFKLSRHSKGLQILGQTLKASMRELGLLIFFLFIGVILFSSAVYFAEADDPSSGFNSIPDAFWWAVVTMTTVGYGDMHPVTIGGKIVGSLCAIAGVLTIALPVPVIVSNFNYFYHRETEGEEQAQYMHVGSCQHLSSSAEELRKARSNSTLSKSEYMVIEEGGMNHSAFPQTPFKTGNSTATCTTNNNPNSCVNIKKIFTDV

Consider `Cc1cc(=O)c2c(O)cc(O)c([C@H]3CCN(C)C[C@H]3O)c2o1` [ROHITUKINE], for which the ED50 with Rattus norvegicus amounted to 2.5 mg/kg.

As for `COc1c(C(C)=O)c(O)c(OCCCc2ccccc2)c2occc12`, the Selectivity ratio in assay [1] came to 10. In assay [2], this compound gave a pEC50 of 6.00.
